Read-outs that look alike come from different tables or passages of the source.
Test system: HT-29 cells
Assay: HT29 Cells 0FBS Assay In Vitro (TNF-α/SMAC mimetic/zVAD-FMK induced necroptosis, CellTiter-Glo cell viability)
Assay type: cell-based
Conditions: Homo sapiens, HT-29 cells, FBS free medium, TNF-α (10 ng/ml), SMAC mimetic (6 uM), zVAD-FMK (10 μM), 20 hours, geometric mean EC50
Outline: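 HT-29 cells (5,000/well, seeded overnight) in serum-free McCoy's 5A were stimulated with TNF-α 10 ng/ml, SMAC mimetic 6 μM and zVAD-FMK 10 μM to induce necroptosis. Compound added as 10-point 3-fold series for 20 h at 37° C. CellTiter-Glo luminescence gives viability; EC50 is geometric mean of duplicate dose-responses.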

[1] = read-out: Cell activity (EC50) of Compounds 1-116
[2] = read-out: Cell activity (EC50) of Compounds 117-281

SMILES	EC50 [1] [nM]	EC50 [2] [nM]
Cn1ncc(C(N)=O)c1-c1ccc(F)c(OC2CN(C(=O)N3N=CCC3c3cc(F)cc(F)c3)C2)c1 (stereo not shown) [compound 115]	0.1 to 100	–
Cc1nn(-c2ccc(F)c(OC3CN(C(=O)N4N=CC[C@H]4c4cc(F)cc(F)c4)C3)n2)c(C)c1C(N)=O [compound 275]	–	0.1 to 100
Cn1ncnc1-c1ncc(F)c(OC2CN(C(=O)N3N=CC[C@H]3c3cc(F)cc(F)c3)C2)n1 [compound 30, (S)-(5-(3,5-difluorophenyl)-4,5-dihydro-1H-pyrazol-1-yl)(3-((5-fluoro-2-(1-methyl-1H-1,2,4-triazol-5-yl)pyrimidin-4-yl)oxy)azetidin-1-yl)methanone]	0.1 to 100	–
CC(=O)Nc1cnn(C)c1-c1cc(OC2CN(C(=O)N3N=CC[C@H]3c3cc(F)cc(F)c3)C2)c(F)cn1 [compound 57, (S)—N-(5-(4-((1-(5-(3,5-difluorophenyl)-4,5-dihydro-1H-pyrazole-1-carbonyl)azetidin-3-yl)oxy)-5-fluoropyridin-2-yl)-1-methyl-1H-pyrazol-4-yl)acetamide]	0.1 to 100	–
CNc1nn(C)c(-c2cc(OC3CN(C(=O)N4N=CC[C@H]4c4cc(F)cc(F)c4)C3)c(F)cn2)c1C [compound 125, (S)-(5-(3,5-difluorophenyl)-4,5-dihydro-1H-pyrazol-1-yl)(3-((2-(1,4-dimethyl-3-(methylamino)-1H-pyrazol-5-yl)-5-fluoropyridin-4-yl)oxy)azetidin-1-yl)methanone]	–	0.1 to 100
Cn1cc(-c2cc(OC3CN(C(=O)N4N=CC[C@H]4c4cc(F)cc(F)c4)C3)c(F)cn2)nn1 [compound 32, (S)-(5-(3,5-difluorophenyl)-4,5-dihydro-1H-pyrazol-1-yl)(3-((5-fluoro-2-(1-methyl-1H-1,2,3-triazol-4-yl)pyridin-4-yl)oxy)azetidin-1-yl)methanone]	0.1 to 100	–
Cc1nn(-c2cc(OC3CN(C(=O)N4N=CC[C@H]4c4cc(F)cc(F)c4)C3)c(F)cn2)c(C)c1S(=O)(=O)NC1CCCCC1 [compound 242, (S)—N-cyclohexyl-1-(4-((1-(5-(3,5-difluorophenyl)-4,5-dihydro-1H-pyrazole-1-carbonyl)azetidin-3-yl)oxy)-5-fluoropyridin-2-yl)-3,5-dimethyl-1H-pyrazole-4-sulfonamide]	–	0.1 to 100
Cc1nn(-c2cc(OC3CN(C(=O)N4N=CC[C@H]4c4cc(F)cc(F)c4)C3)c(F)cn2)c(C)c1NC(=O)C1CCOCC1 [compound 138]	–	0.1 to 100
COc1cnn(C)c1-c1cc(OC2CN(C(=O)N3N=CC[C@H]3c3cc(F)cc(F)c3)C2)c(F)cn1 [compound 50, (S)-(5-(3,5-difluorophenyl)-4,5-dihydro-1H-pyrazol-1-yl)(3-((5-fluoro-2-(4-methoxy-1-methyl-1H-pyrazol-5-yl)pyridin-4-yl)oxy)azetidin-1-yl)methanone]	0.1 to 100	–
Cn1ncc(C#N)c1-c1ccc(F)c(OC2CN(C(=O)N3N=CCC3c3cc(F)cc(F)c3)C2)n1 (stereo not shown) [compound 111, 5-(6-((1-(5-(3,5-difluorophenyl)-4,5-dihydro-1H-pyrazole-1-carbonyl)azetidin-3-yl)oxy)-5-fluoropyridin-2-yl)-1-methyl-11H-pyrazole-4-carbonitrile]	0.1 to 100	–
Cc1nocc1-c1ncc(F)c(OC2CN(C(=O)N3N=CC[C@H]3c3cc(F)cc(F)c3)C2)n1 [compound 22, (S)-(5-(3,5-difluorophenyl)-4,5-dihydro-1H-pyrazol-1-yl)(3-((5-fluoro-2-(3-methylisoxazol-4-yl)pyrimidin-4-yl)oxy)azetidin-1-yl)methanone]	0.1 to 100	–
Cn1ccc(-c2ncc(F)c(OC3CN(C(=O)N4N=CC[C@H]4c4cc(F)cc(F)c4)C3)n2)n1 [compound 39, (S)-(5-(3,5-difluorophenyl)-4,5-dihydro-1H-pyrazol-1-yl)(3-((5-fluoro-2-(1-methyl-1H-pyrazol-3-yl)pyrimidin-4-yl)oxy)azetidin-1-yl)methanone]	100 to 1000	–
Cc1c(-c2cc(OC3CN(C(=O)N4N=CC[C@H]4c4cc(F)cc(F)c4)C3)c(F)cn2)nn(C)c1C(=O)NC1CC(O)C1 (stereo partly drawn) [compound 263, (S)-3-(4-((1-(5-(3,5-difluorophenyl)-4,5-dihydro-1H-pyrazole-1-carbonyl)azetidin-3-yl)oxy)-5-fluoropyridin-2-yl)-N-(3-hydroxycyclobutyl)-1,4-dimethyl-1H-pyrazole-5-carboxamide]	–	0.1 to 100
COCCOc1cnn(C)c1-c1cc(OC2CN(C(=O)N3N=CC[C@H]3c3cc(F)cc(F)c3)C2)c(F)cn1 [compound 52, (S)-(5-(3,5-difluorophenyl)-4,5-dihydro-1H-pyrazol-1-yl)(3-((5-fluoro-2-(4-(2-methoxyethoxy)-1-methyl-1H-pyrazol-5-yl)pyridin-4-yl)oxy)azetidin-1-yl)methanone]	0.1 to 100	–
Cn1cncc1-c1cc(OC2CN(C(=O)N3N=CC[C@H]3c3cc(F)cc(F)c3)C2)c(F)cn1 [compound 7, (S)-(5-(3,5-difluorophenyl)-4,5-dihydro-1H-pyrazol-1-yl)(3-((5-fluoro-2-(1-methyl-1H-imidazol-5-yl)pyridin-4-yl)oxy)azetidin-1-yl)methanone]	0.1 to 100	–
Cn1ncc(C(=O)N2CCC2)c1-c1cc(OC2CN(C(=O)N3N=CC[C@H]3c3cc(F)cc(F)c3)C2)c(F)cn1 [compound 72, (S)-azetidin-1-yl(5-(4-((1-(5-(3,5-difluorophenyl)-4,5-dihydro-1H-pyrazole-1-carbonyl)azetidin-3-yl)oxy)-5-fluoropyridin-2-yl)-1-methyl-1H-pyrazol-4-yl)methanone]	100 to 1000	–
CNC(=O)c1c(C)nn(-c2cc(OC3CN(C(=O)N4N=CC[C@H]4c4cc(F)cc(F)c4)C3)c(F)cn2)c1C [compound 193, (S)-1-(4-((1-(5-(3,5-difluorophenyl)-4,5-dihydro-1H-pyrazole-1-carbonyl)azetidin-3-yl)oxy)-5-fluoropyridin-2-yl)-N,3,5-trimethyl-1H-pyrazole-4-carboxamide]	–	0.1 to 100
Cc1c(C(N)=O)nn(C)c1-c1cc(OC2CN(C(=O)N3N=CC[C@H]3c3cc(F)cc(F)c3)C2)c(F)cn1 [compound 165, (S)-5-(4-((1-(5-(3,5-difluorophenyl)-4,5-dihydro-1H-pyrazole-1-carbonyl)azetidin-3-yl)oxy)-5-fluoropyridin-2-yl)-1,4-dimethyl-1H-pyrazole-3-carboxamide]	–	0.1 to 100
Cc1nn(-c2cc(OC3CN(C(=O)N4N=CC[C@H]4c4cc(F)cc(F)c4)C3)c(F)cn2)c(C)c1C(=O)NC1CC1 [compound 232, (S)—N-cyclopropyl-1-(4-((1-(5-(3,5-difluorophenyl)-4,5-dihydro-1H-pyrazole-1-carbonyl)azetidin-3-yl)oxy)-5-fluoropyridin-2-yl)-3,5-dimethyl-1H-pyrazole-4-carboxamide]	–	0.1 to 100
Cc1cn[nH]c1-c1cc(OC2CN(C(=O)N3N=CC[C@H]3c3cc(F)cc(F)c3)C2)c(F)cn1 [compound 126, (S)-(5-(3,5-difluorophenyl)-4,5-dihydro-1H-pyrazol-1-yl)(3-((5-fluoro-2-(4-methyl-1H-pyrazol-5-yl)pyridin-4-yl)oxy)azetidin-1-yl)methanone]	–	0.1 to 100
Cn1nc(CO)cc1-c1cc(OC2CN(C(=O)N3N=CC[C@H]3c3cc(F)cc(F)c3)C2)c(F)cn1 [compound 174, (S)-(5-(3,5-difluorophenyl)-4,5-dihydro-1H-pyrazol-1-yl)(3-((5-fluoro-2-(3-(hydroxymethyl)-1-methyl-1H-pyrazol-5-yl)pyridin-4-yl)oxy)azetidin-1-yl)methanone]	–	0.1 to 100
Cc1nn(-c2cc(OC3CN(C(=O)N4N=CC[C@H]4c4cc(F)cc(F)c4)C3)c(F)cn2)c(C)c1S(=O)(=O)NC1COC1 [compound 240]	–	0.1 to 100

From US12655125B2 (SIRONAX LTD., priority 2020, dated 2026)
